Here are results for 19 compounds from patent publication US8076338B2, “Kinase modulators and methods of use” (Exelixis, Inc., priority 2004, dated 2011).

Some results are limits rather than exact numbers.

In one experiment the target is p70S6K (Homo sapiens, UniProt P23443). In words: Luciferase-coupled chemiluminescence kinase assay (ATP consumption). Type of experiment: biochemical. The settings on record: Table 1; class symbols per key. An outline of the steps: (§1)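 Activity is read as ATP depletion: luciferase-luciferin reagent added after a 3 h ambient-temperature kinase reaction, with total ATP use limited to 25-60%. Before ATP addition, 2.5-5 nM kinase and compound were preincubated 30 min in Tris pH 7.5/MgCl2/TX-100/DTT buffer; […].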

A further experiment deals with AktK (Homo sapiens, UniProt P31749). Described as above. The class given is biochemical. The settings on record: Table 1; class symbols per key; read-out: AKT-1 IC50. An outline of the steps:
as §1

AktK, sequence (P31749 whole entry): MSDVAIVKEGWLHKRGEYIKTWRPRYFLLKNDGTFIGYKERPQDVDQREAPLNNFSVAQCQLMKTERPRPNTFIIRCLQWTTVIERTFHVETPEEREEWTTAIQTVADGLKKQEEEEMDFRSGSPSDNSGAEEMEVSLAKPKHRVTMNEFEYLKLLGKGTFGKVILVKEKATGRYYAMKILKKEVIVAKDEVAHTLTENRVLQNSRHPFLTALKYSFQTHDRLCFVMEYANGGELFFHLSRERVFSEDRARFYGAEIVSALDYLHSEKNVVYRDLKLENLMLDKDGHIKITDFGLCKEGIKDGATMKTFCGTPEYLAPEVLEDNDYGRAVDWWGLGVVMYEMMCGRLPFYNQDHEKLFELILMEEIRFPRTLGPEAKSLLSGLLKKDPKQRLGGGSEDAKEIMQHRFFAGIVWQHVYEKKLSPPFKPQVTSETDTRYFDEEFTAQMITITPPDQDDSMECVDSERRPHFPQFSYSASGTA
p70S6K, sequence (P23443 whole entry): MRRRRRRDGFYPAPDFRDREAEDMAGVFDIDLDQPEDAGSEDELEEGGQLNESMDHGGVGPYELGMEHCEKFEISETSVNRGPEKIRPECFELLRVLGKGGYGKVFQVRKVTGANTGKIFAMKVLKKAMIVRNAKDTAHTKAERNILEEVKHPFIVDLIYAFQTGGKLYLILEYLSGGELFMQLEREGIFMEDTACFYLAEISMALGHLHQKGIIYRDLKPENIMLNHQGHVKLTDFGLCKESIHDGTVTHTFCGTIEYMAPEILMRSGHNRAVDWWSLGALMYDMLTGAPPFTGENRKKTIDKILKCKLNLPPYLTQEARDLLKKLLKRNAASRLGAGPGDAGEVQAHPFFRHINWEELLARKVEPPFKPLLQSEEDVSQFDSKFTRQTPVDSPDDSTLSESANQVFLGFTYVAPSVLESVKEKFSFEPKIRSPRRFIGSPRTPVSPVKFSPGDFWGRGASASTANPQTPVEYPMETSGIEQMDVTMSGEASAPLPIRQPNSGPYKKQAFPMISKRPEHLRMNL

What is called IC50 is the midpoint of a concentration-inhibition curve. Consider `Cc1ccc(C(=O)Nc2ccccc2)cc1N1CCN(c2ncnc3[nH]nc(Br)c23)C[C@@H]1CO` [Entry 200, 3-[(2R)-4-(3-bromo-1H-pyrazolo[3,4-d]pyrimidin-4-yl)-2-(hydroxymethyl)piperazin-1-yl]-4-methyl-N-phenylbenzamide], for which the concentration for half-maximal inhibition (IC50) against p70S6K and at AktK was below 100 nM in each case.
For `Cc1c(NCCN2CCCC2)cc(C(=O)N2CCCC2)cc1N1CCN(c2ncnc3[nH]nc(Br)c23)CC1` [Entry 201, 3-[4-(3-bromo-1H-pyrazolo[3,4-d]pyrimidin-4-yl)piperazin-1-yl]-2-methyl-5-(pyrrolidin-1-ylcarbonyl)-N-(2-pyrrolidin-1-ylethyl)aniline], the half-maximal inhibitory concentration (IC50) was below 100 nM against p70S6K and 100 to 1000 nM on AktK.
Consider `CNC(=O)c1cc(NCCN2CCCC2)c(C)c(N2CCN(c3ncnc4[nH]nc(Br)c34)CC2)c1` [Entry 202, 3-[4-(3-bromo-1H-pyrazolo[3,4-d]pyrimidin-4-yl)piperazin-1-yl]-N,4-dimethyl-5-[(2-pyrrolidin-1-ylethyl)amino]benzamide], for which the concentration for half-maximal inhibition (IC50) was below 100 nM at p70S6K and 100 to 1000 nM on AktK.
In the case of `Cc1c(NCCN2CCCC2)cc(C(=O)Nc2ccc(Cl)cc2)cc1N1CCN(c2ncnc3[nH]nc(Br)c23)CC1` [Entry 203, 3-[4-(3-bromo-1H-pyrazolo[3,4-d]pyrimidin-4-yl)piperazin-1-yl]-N-(4-chlorophenyl)-4-methyl-5-[(2-pyrrolidin-1-ylethyl)amino]benzamide], the half-inhibitory concentration (IC50) at p70S6K and at AktK was below 100 nM throughout.
In the case of `Cc1c(NCCN2CCCC2)cc(C(=O)Nc2ccccc2Cl)cc1N1CCN(c2ncnc3[nH]nc(Br)c23)CC1` [Entry 204, 3-[4-(3-bromo-1H-pyrazolo[3,4-d]pyrimidin-4-yl)piperazin-1-yl]-N-(2-chlorophenyl)-4-methyl-5-[(2-pyrrolidin-1-ylethyl)amino]benzamide], the concentration for half-maximal inhibition (IC50) at p70S6K and on AktK was below 100 nM each time.
As for `Cc1c(NCCN2CCCC2)cc(OCC2CC2)cc1N1CCN(c2ncnc3[nH]nc(Br)c23)CC1` [Entry 205, 3-[4-(3-bromo-1H-pyrazolo[3,4-d]pyrimidin-4-yl)piperazin-1-yl]-5-[(cyclopropylmethyl)oxy]-2-methyl-N-(2-pyrrolidin-1-ylethyl)aniline], the IC50 against p70S6K and at AktK was below 100 nM throughout.
For `Cc1c(NCCN2CCCC2)cc(OCCC(C)C)cc1N1CCN(c2ncnc3[nH]nc(Br)c23)CC1` [Entry 206, 3-[4-(3-bromo-1H-pyrazolo[3,4-d]pyrimidin-4-yl)piperazin-1-yl]-2-methyl-5-[(3-methylbutyl)oxy]-N-(2-pyrrolidin-1-ylethyl)aniline], the IC50 against p70S6K and at AktK was below 100 nM each time.
`CCC(CC)COc1cc(NCCN2CCCC2)c(C)c(N2CCN(c3ncnc4[nH]nc(Br)c34)CC2)c1` [Entry 207, 3-[4-(3-bromo-1H-pyrazolo[3,4-d]pyrimidin-4-yl)piperazin-1-yl]-5-[(2-ethylbutyl)oxy]-2-methyl-N-(2-pyrrolidin-1-ylethyl)aniline]: the 50% inhibitory concentration (IC50) at p70S6K and at AktK was below 100 nM each time.
As for `Cc1c(NCCN2CCCC2)cc(C(=O)NC(C)C)cc1N1CCN(c2ncnc3[nH]nc(Br)c23)CC1` [Entry 209, 3-[4-(3-bromo-1H-pyrazolo[3,4-d]pyrimidin-4-yl)piperazin-1-yl]-4-methyl-N-(1-methylethyl)-5-[(2-pyrrolidin-1-ylethyl)amino]benzamide], the 50% inhibitory concentration (IC50) against p70S6K and at AktK was below 100 nM throughout.
In the case of `Cc1c(NCCN2CCCC2)cc(C(=O)N(C)C(C)C)cc1N1CCN(c2ncnc3[nH]nc(Br)c23)CC1` [Entry 210, 3-[4-(3-bromo-1H-pyrazolo[3,4-d]pyrimidin-4-yl)piperazin-1-yl]-N,4-dimethyl-N-(1-methylethyl)-5-[(2-pyrrolidin-1-ylethyl)amino]benzamide], the IC50 at p70S6K is below 100 nM; at AktK it was 100 to 1000 nM.
In the case of `Cc1c(NCCN2CCCC2)cc(OCC2CCC2)cc1N1CCN(c2ncnc3[nH]nc(Br)c23)CC1` [Entry 211, 3-[4-(3-bromo-1H-pyrazolo[3,4-d]pyrimidin-4-yl)piperazin-1-yl]-5-[(cyclobutylmethyl)oxy]-2-methyl-N-(2-pyrrolidin-1-ylethyl)aniline], the IC50 on p70S6K and at AktK was below 100 nM in each case.
With `CCOc1cc(NCCN2CCCC2)c(C)c(N2CCN(c3ncnc4[nH]nc(Br)c34)CC2)c1` [Entry 212, 3-[4-(3-bromo-1H-pyrazolo[3,4-d]pyrimidin-4-yl)piperazin-1-yl]-5-(ethyloxy)-2-methyl-N-(2-pyrrolidin-1-ylethyl)aniline], the half-maximal inhibitory concentration (IC50) against p70S6K and at AktK was below 100 nM in each case.
Regarding `Cc1ccc(C(=O)NCCN(C)C)cc1N1CCN(c2ncnc3[nH]nc(Br)c23)CC1` [Entry 213, 3-[4-(3-bromo-1H-pyrazolo[3,4-d]pyrimidin-4-yl)piperazin-1-yl]-N-[2-(dimethylamino)ethyl]-4-methylbenzamide], the half-maximal inhibitory concentration (IC50) at p70S6K is below 100 nM; at AktK, 1000 to 10000 nM.
For the compound `Cc1c(NCCN2CCCC2)cc(C(=O)NC(C)(C)C)cc1N1CCN(c2ncnc3[nH]nc(Br)c23)CC1` [Entry 214, 3-[4-(3-bromo-1H-pyrazolo[3,4-d]pyrimidin-4-yl)piperazin-1-yl]-N-(1,1-dimethylethyl)-4-methyl-5-[(2-pyrrolidin-1-ylethyl)amino]benzamide], the half-maximal inhibitory concentration (IC50) against p70S6K and on AktK was below 100 nM each time.
For `Cc1c(NCCN2CCCC2)cc(C(=O)Nc2cccnc2)cc1N1CCN(c2ncnc3[nH]nc(Br)c23)CC1` [Entry 215, [4-(3-bromo-1H-pyrazolo[3,4-d]pyrimidin-4-yl)piperazin-1-yl]-4-methyl-N-pyridin-3-yl-5-[(2-pyrrolidin-1-ylethyl)amino]benzamide], the IC50 against p70S6K and on AktK was below 100 nM in each case.
As to `Cc1c(NCCN2CCCC2)cc(OCC(C)(C)F)cc1N1CCN(c2ncnc3[nH]nc(Br)c23)CC1` [Entry 216, 3-[4-(3-bromo-1H-pyrazolo[3,4-d]pyrimidin-4-yl)piperazin-1-yl]-5-[(2-fluoro-2-methylpro-pyl)oxy]-2-methyl-N-(2-pyrrolidin-1-ylethyl)aniline], the IC50 against p70S6K and at AktK was below 100 nM each time.
For the compound `Cc1c(NCCN2CCCC2)cc(OCC2CCCCC2)cc1N1CCN(c2ncnc3[nH]nc(Br)c23)CC1` [Entry 217, 3-[4-(3-bromo-1H-pyrazolo[3,4-d]pyrimidin-4-yl)piperazin-1-yl]-5-[(cyclohexylmethyl)oxy]-2-methyl-N-(2-pyrrolidin-1-ylethyl)aniline], the half-maximal inhibitory concentration (IC50) against p70S6K is below 100 nM; at AktK, 100 to 1000 nM.
The matching figures for `Cc1c(NCCN2CCCC2)cc(OCC2CCCC2)cc1N1CCN(c2ncnc3[nH]nc(Br)c23)CC1` [Entry 218, 3-[4-(3-bromo-1H-pyrazolo[3,4-d]pyrimidin-4-yl)piperazin-1-yl]-5-[(cyclopentylmethyl)oxy]-2-methyl-N-(2-pyrrolidin-1-ylethyl)aniline]: below 100 nM and below 100 nM.
In the case of `CCNC(=O)c1cc(NCCN2CCCC2)c(C)c(N2CCN(c3ncnc4[nH]nc(Br)c34)CC2)c1` [Entry 219, 3-[4-(3-bromo-1H-pyrazolo[3,4-d]pyrimidin-4-yl)piperazin-1-yl]-N-ethyl-4-methyl-5-[(2-pyrrolidin-1-ylethyl)amino]benzamide], the IC50 on p70S6K and at AktK was below 100 nM in each case.
